From US20240269139A1, “COMPOUNDS FOR TARGETED PROTEIN DEGRADATION OF KINASES” (DANA-FARBER CANCER INSTITUTE, INC., priority 2020, published 2024)
Read-outs that look alike come from different tables or passages of the source.

What was measured:
[1] = target: protein kinases (human kinome) (Homo sapiens, UniProt P11802); assay type: cell-based
[2] = target: protein kinases (human kinome) (Homo sapiens, UniProt P30291); assay type: cell-based; conditions: for logFC of WEE1: WEE1 P30291-1
[3] = target: protein kinases (human kinome) (Homo sapiens, UniProt Q00534); assay type: cell-based; conditions: for logFC CDK6: CDK6 (Q00534), direction down; for logFC of CDK6 (Q00534): down
[4] = target: protein kinases (human kinome) (Homo sapiens, UniProt Q2M2I8); assay type: cell-based
[5] = target: T1, protein kinases (human kinome) (Homo sapiens, UniProt Q9NYY8); assay type: cell-based; conditions: Experiment wp016, 1 uM; direction down
T1 sequence (Q9NYY8 1-710): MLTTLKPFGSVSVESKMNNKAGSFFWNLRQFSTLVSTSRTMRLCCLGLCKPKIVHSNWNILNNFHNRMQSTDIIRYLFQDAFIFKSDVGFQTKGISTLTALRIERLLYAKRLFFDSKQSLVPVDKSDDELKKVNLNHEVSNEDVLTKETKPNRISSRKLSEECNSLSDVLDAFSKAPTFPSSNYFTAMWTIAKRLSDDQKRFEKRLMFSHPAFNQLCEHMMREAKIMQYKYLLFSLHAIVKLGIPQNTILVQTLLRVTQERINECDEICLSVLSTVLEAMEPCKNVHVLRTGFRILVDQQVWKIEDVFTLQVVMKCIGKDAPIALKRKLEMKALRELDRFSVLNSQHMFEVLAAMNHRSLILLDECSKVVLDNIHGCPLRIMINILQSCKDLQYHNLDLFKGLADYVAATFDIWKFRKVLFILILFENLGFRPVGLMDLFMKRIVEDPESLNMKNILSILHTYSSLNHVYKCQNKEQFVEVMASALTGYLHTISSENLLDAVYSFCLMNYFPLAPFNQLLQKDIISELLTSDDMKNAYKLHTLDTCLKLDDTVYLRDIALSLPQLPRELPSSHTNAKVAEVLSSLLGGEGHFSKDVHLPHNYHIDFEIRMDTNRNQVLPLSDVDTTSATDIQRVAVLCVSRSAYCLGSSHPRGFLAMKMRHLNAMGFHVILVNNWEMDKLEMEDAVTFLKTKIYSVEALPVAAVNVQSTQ

[6] = target: T2, extended human kinome (kinase-like proteins) (Homo sapiens, UniProt P54886); experiment: Whole cell quantitative proteomics: extended kinome hits; conditions: Accession P54886; experiment wp160; 1 hr
T2 sequence (P54886 1-795): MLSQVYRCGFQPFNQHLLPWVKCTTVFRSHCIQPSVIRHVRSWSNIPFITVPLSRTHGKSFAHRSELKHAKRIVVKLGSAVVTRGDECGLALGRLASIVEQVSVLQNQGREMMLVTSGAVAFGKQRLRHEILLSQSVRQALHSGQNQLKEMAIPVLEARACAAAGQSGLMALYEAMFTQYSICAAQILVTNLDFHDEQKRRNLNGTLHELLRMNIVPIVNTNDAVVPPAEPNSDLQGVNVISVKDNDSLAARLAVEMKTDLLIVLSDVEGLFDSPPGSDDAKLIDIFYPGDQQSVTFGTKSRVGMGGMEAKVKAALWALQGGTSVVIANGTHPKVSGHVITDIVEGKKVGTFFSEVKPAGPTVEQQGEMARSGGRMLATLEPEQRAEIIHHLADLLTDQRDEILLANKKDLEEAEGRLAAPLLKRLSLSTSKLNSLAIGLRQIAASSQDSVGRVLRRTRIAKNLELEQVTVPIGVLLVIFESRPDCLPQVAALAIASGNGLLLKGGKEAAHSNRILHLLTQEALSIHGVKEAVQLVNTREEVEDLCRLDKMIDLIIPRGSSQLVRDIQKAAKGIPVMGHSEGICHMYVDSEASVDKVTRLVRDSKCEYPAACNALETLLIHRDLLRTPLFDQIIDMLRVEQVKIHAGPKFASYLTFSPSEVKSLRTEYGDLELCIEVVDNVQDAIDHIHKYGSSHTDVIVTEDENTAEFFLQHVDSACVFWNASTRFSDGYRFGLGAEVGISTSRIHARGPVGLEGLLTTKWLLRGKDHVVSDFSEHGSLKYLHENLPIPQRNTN
Description: Whole cell multiplexed quantitative proteomics was employed to measure changes in abundance of the proteome in response to treatment with each of the kinase degrader molecules relative to DMSO (Table 1, Appendix I).
Cells were treated with DMSO (biological triplicate) or degrader at indicated dose and time and cells were harvested by centrifugation. […] Precipitated protein was resuspended in 4 M Urea, 50 mM HEPES pH 7.4, followed by dilution to 1 M urea with the addition of 200 mM EPPS, pH 8. Proteins were first digested with LysC (1:50: enzyme:protein) for 12 hours at room temperature. The LysC digestion was diluted to 0.5 M Urea with 200 mM EPPS pH 8 followed by digestion with trypsin (1:50; enzyme:protein) for 6 hours at 37° C. Tandem mass tag (TMT) reagents (Thermo Fisher Scientific) were dissolved in anhydrous acetonitrile (ACN) according to manufacturer's instructions. […] The 10, 11, or 16-plex labeling reactions were performed for 1.5 hours at room temperature and the reaction quenched by the addition of hydroxylamine to a final concentration of 0.3% for 15 minutes at room temperature. The sample channels were combined at a 1:1 ratio, desalted using C18 solid phase extraction cartridges (Waters®) and analyzed by LC-MS for channel ratio comparison. Samples were then combined using the adjusted volumes determined in the channel ratio analysis and dried down in a speed vacuum. The combined sample was then resuspended in 1% formic acid, and acidified (pH 2-3) before being subjected to desalting with C18 SPE (Sep-Pak®, Waters®). Samples were then offline fractionated into 96 fractions by high pH reverse-phase HPLC (Agilent® LC1260) through an aeris peptide xb-c18 column (Phenomenex®) with mobile phase A containing 5% acetonitrile and 10 mM NH4HCO3 in LC-MS grade H2O, and mobile phase B containing 90% acetonitrile and 10 mM NH4HCO3 in LC-MS grade H2O (both pH 8.0). The 96 resulting fractions were then pooled in a non-continuous manner into 24 fractions and desalted using C18 solid phase extraction plates (SOLA®, Thermo Fisher Scientific) followed by subsequent mass spectrometry analysis.
Data were collected using an Orbitrap Fusion™ Lumos™ mass spectrometer (Thermo Fisher Scientific, San Jose, CA, USA) coupled with a Proxeon EASY-nLC™ 1200 LC pump (Thermo Fisher Scientific) or an Orbitrap Eclipse™ Tribrid™ mass spectrometer (Thermo Fisher Scientific, San Jose, CA, USA) coupled with an UltiMate™ 3000 RSLCnano System. Peptides were separated on an EasySpray™ ES803a/ES803a.rev2 75 μm inner diameter microcapillary column (ThermoFisher Scientific).
Data dependent MS2 spectra were acquired in the ion trap with a normalized collision energy (NCE) set at 35%, AGC target set to 1.8×10^4 and a maximum injection time of 120 ms. MS3 scans were acquired in the Orbitrap with HCD collision energy set to 55%. AGC target set to 2×10^5, maximum injection time of 150 ms, resolution at 50,000 and with a maximum synchronous precursor selection (SPS) precursors set to 10.
Proteome Discoverer™ 2.1, 2.2 or 2.4 (Thermo Fisher Scientific) was used for .RAW file processing and controlling peptide and protein level false discovery rates, assembling proteins from peptides, and protein quantification from peptides.

protein kinases (human kinome) (Homo sapiens, UniProt Q00534), sequence (Q00534 whole entry): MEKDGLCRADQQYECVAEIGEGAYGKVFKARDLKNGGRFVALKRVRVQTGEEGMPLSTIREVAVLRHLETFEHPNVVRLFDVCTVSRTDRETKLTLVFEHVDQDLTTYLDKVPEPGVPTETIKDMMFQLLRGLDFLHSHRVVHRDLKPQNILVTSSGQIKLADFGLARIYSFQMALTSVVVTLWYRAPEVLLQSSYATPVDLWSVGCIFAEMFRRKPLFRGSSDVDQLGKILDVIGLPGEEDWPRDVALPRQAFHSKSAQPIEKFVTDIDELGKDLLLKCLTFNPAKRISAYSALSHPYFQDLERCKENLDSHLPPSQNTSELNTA
protein kinases (human kinome) (Homo sapiens, UniProt P11802), sequence (P11802 whole entry): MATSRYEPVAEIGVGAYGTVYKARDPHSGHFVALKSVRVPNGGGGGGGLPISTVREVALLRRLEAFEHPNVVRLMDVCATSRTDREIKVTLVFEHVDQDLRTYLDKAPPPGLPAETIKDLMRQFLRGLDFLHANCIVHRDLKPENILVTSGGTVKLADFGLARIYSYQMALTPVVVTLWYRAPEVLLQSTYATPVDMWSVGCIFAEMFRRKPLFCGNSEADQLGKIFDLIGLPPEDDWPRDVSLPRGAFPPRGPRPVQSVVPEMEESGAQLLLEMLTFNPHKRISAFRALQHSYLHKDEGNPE
protein kinases (human kinome) (Homo sapiens, UniProt P30291), sequence (P30291 whole entry): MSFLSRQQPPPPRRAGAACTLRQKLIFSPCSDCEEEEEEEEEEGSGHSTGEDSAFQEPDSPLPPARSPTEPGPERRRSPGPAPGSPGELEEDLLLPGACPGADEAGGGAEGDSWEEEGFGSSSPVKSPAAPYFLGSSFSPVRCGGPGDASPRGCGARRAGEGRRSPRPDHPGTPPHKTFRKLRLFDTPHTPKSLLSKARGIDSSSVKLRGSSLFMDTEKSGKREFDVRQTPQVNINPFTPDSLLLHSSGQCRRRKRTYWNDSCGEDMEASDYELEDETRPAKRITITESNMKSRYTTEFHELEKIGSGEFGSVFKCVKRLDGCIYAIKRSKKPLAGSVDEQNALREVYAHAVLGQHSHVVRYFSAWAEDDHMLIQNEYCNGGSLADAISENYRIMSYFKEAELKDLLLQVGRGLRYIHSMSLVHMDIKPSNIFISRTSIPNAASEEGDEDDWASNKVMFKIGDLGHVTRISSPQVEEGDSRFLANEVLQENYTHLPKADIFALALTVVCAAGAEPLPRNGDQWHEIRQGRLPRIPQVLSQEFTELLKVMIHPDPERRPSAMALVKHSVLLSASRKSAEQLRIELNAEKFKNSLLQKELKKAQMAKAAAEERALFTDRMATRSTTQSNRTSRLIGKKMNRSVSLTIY
protein kinases (human kinome) (Homo sapiens, UniProt Q2M2I8), sequence (Q2M2I8 whole entry): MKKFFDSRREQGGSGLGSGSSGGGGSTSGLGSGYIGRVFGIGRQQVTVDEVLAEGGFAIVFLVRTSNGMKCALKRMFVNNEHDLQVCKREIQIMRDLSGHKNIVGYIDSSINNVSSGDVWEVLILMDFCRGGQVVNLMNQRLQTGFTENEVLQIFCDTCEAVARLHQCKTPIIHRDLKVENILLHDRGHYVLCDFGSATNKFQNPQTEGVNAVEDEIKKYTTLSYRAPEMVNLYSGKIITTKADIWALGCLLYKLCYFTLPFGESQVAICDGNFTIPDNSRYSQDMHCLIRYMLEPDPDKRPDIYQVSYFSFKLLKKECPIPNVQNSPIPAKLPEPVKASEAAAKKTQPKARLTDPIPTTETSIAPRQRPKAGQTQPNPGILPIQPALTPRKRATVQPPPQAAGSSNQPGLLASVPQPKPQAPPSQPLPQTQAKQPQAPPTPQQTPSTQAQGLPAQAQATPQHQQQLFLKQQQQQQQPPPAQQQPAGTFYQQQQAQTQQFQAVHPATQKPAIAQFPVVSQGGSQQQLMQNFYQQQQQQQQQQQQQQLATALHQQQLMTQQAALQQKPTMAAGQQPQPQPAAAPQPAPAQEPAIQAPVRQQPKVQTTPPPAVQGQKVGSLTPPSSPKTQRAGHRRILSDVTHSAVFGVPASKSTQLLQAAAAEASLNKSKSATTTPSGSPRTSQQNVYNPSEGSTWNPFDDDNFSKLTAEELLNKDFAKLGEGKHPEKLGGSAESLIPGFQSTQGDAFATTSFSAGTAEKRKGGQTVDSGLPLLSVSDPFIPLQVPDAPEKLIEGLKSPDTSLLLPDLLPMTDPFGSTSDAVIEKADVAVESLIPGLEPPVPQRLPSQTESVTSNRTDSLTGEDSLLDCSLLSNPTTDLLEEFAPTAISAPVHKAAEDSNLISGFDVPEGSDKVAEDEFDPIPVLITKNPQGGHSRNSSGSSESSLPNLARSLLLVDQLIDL

SMILES: CC(C)S(=O)(=O)c1ccccc1Nc1nc(Nc2ccc(N3CCN(CCOCCNC(=O)CNc4cccc5c4C(=O)N(C4CCC(=O)NC4=O)C5=O)CC3)cc2)ncc1Cl (stereo not shown) [SK.3.91]
- logFC CDK4 (P11802) ([1]; Experiment wp160, 2 hr): −0.9104
- logFC CDK4 (P11802) ([1]; experiment wp016): −1.161
- logFC CDK4 (P11802) ([1]; experiment wp016, 1 uM): −1.429
- logFC CDK4 (P11802) ([1]; experiment wp103): −1.029
- logFC CDK4 (P11802) ([1]; experiment wp105): −0.7995
- logFC CDK4 (P11802) ([1]; experiment wp107): −1.272
- logFC CDK4 (P11802) ([1]; experiment wp114): −0.5605
- logFC CDK4 (P11802) ([1]; experiment wp133, 2 hr): −0.7484
- logFC CDK4 (P11802) ([1]; experiment wp133, 4 hr): −1.292
- logFC CDK4 (P11802) ([1]; experiment wp160, 1 hr): −0.4329
- logFC CDK4 (P11802) ([1]; experiment wp160, 4 hr): −1.353
- logFC WEE1 (P30291-1) ([2]; Experiment wp160, 2 hr): −1.201
- logFC WEE1 (P30291-1) ([2]; Experiment wp172): −0.6853
- logFC of WEE1 ([2]; experiment wp103): −1.371
- logFC of WEE1 ([2]; experiment wp105): −1.229
- logFC of WEE1 ([2]; experiment wp107): −2.329
- logFC of WEE1 ([2]; experiment wp133, 1 hr): −0.4866
- logFC of WEE1 ([2]; experiment wp133, 2 hr): −1.21
- logFC of WEE1 ([2]; experiment wp133, 4 hr): −2.314
- logFC of WEE1 ([2]; experiment wp160, 1 hr): −0.5503
- logFC of WEE1 ([2]; experiment wp160, 2 hr): −1.201
- logFC of WEE1 ([2]; experiment wp160, 4 hr): −1.994
- logFC of WEE1 ([2]; experiment wp172): −0.6853
- logFC WEE1 (P30291-1) ([2]; experiment wp016): −1.278
- logFC WEE1 (P30291-1) ([2]; experiment wp016, 1 uM): −2.684
- logFC WEE1 (P30291-1) ([2]; experiment wp103): −1.371
- logFC WEE1 (P30291-1) ([2]; experiment wp105): −1.229
- logFC WEE1 (P30291-1) ([2]; experiment wp107): −2.329
- logFC WEE1 (P30291-1) ([2]; experiment wp133, 1 hr): −0.4866
- logFC WEE1 (P30291-1) ([2]; experiment wp133, 2 hr): −1.21
- logFC WEE1 (P30291-1) ([2]; experiment wp133, 4 hr): −2.314
- logFC WEE1 (P30291-1) ([2]; experiment wp160, 1 hr): −0.5503
- logFC WEE1 (P30291-1) ([2]; experiment wp160, 4 hr): −1.994
- logFC CDK6 ([3]; experiment wp016): −0.8832
- logFC CDK6 ([3]; experiment wp016, 1 uM): −1.149
- logFC CDK6 ([3]; experiment wp103): −0.9349
- logFC CDK6 ([3]; experiment wp105): −0.5421
- logFC CDK6 ([3]; experiment wp107): −1.012
- logFC CDK6 ([3]; experiment wp133, 1 hr): −0.3542
- logFC CDK6 ([3]; experiment wp133, 2 hr): −0.6404
- logFC CDK6 ([3]; experiment wp133, 4 hr): −1.05
- logFC CDK6 ([3]; experiment wp160, 1 hr): −0.3255
- logFC CDK6 ([3]; experiment wp160, 2 hr): −0.5948
- logFC CDK6 ([3]; experiment wp160, 4 hr): −1.133
- logFC of CDK6 (Q00534) ([3]; Experiment wp016, 1 uM): −1.149
- logFC of CDK6 (Q00534) ([3]; Experiment wp016): −0.8832
- logFC of CDK6 (Q00534) ([3]; Experiment wp103): −0.9349
- logFC of CDK6 (Q00534) ([3]; Experiment wp105): −0.5421
- logFC of CDK6 (Q00534) ([3]; Experiment wp107): −1.012
- logFC of CDK6 (Q00534) ([3]; Experiment wp133, 1 hr): −0.3542
- logFC of CDK6 (Q00534) ([3]; Experiment wp133, 2 hr): −0.6404
- logFC of CDK6 (Q00534) ([3]; Experiment wp133, 4 hr): −1.05
- logFC of CDK6 (Q00534) ([3]; Experiment wp160, 1 hr): −0.3255
- logFC of CDK6 (Q00534) ([3]; Experiment wp160, 2 hr): −0.5948
- logFC of CDK6 (Q00534) ([3]; Experiment wp160, 4 hr): −1.133
- logFC AAK1 ([4]; AAK1 (Q2M218-1), experiment wp016, 1 uM, down): −1.114
- logFC AAK1 ([4]; AAK1 (Q2M218-1), experiment wp016, down): −1.364
- logFC AAK1 ([4]; AAK1 (Q2M218-1), experiment wp103, down): −0.7763
- logFC AAK1 ([4]; AAK1 (Q2M218-1), experiment wp105, down): −1.575
- logFC AAK1 ([4]; AAK1 (Q2M218-1), experiment wp107, down): −1.059
- logFC AAK1 ([4]; AAK1 (Q2M218-1), experiment wp114, down): −0.8221
- logFC AAK1 ([4]; AAK1 (Q2M218-1), experiment wp133, 2 hr, down): −0.5506
- logFC AAK1 ([4]; AAK1 (Q2M218-1), experiment wp133, 4 hr, down): −1.105
- logFC AAK1 ([4]; AAK1 (Q2M218-1), experiment wp160, 2 hr, down): −0.5153
- logFC AAK1 ([4]; AAK1 (Q2M218-1), experiment wp160, 4 hr, down): −1.008
- logFC AAK1 ([4]; AAK1 (Q2M218-1), experiment wp172, down): −0.9755
- logFC AAK1 ([4]; AAK1, accession Q2M218-1, experiment wp016, 1 uM, direction of change down): −1.114
- logFC AAK1 ([4]; AAK1, accession Q2M218-1, experiment wp016, direction of change down): −1.364
- logFC AAK1 ([4]; AAK1, accession Q2M218-1, experiment wp103, direction of change down): −0.7763
- logFC AAK1 ([4]; AAK1, accession Q2M218-1, experiment wp105, direction of change down): −1.575
- logFC AAK1 ([4]; AAK1, accession Q2M218-1, experiment wp107, direction of change down): −1.059
- logFC AAK1 ([4]; AAK1, accession Q2M218-1, experiment wp114, direction of change down): −0.8221
- logFC AAK1 ([4]; AAK1, accession Q2M218-1, experiment wp133, 2 hr, direction of change down): −0.5506
- logFC AAK1 ([4]; AAK1, accession Q2M218-1, experiment wp133, 4 hr, direction of change down): −1.105
- logFC AAK1 ([4]; AAK1, accession Q2M218-1, experiment wp160, 2 hr, direction of change down): −0.5153
- logFC AAK1 ([4]; AAK1, accession Q2M218-1, experiment wp160, 4 hr, direction of change down): −1.008
- logFC AAK1 ([4]; AAK1, accession Q2M218-1, experiment wp172, direction of change down): −0.9755
- logFC FASTKD2 (Q9NYY8) [5]: −0.4507
- logFC ALDH18A1 [6]: −0.9684
